{"source": "paper PMC5218480", "about": "(PLoS ONE, 2017)", "tested_on": "MV-4-11 cells", "assay": "Gene expression microarray analysis (Affymetrix PrimeView) and GSEA", "format": "cell-based, human", "parameters": "RFU PODN (11730768_x_at) / Fold change /veh PODN (11730768_x_at) / RFU LINC00158 (11744669_a_at) / Fold change /veh LINC00158 (11744669_a_at) / RFU DUSP10 (11751237_a_at) / Fold change /veh DUSP10 (11751237_a_at) / RFU ID3 (11757404_x_at) / Fold change /veh ID3 (11757404_x_at) / RFU PLEKHG5 (11737974_s_at) / Fold change /veh PLEKHG5 (11737974_s_at) / RFU LRRC4B (11730491_at) / Fold change /veh LRRC4B (11730491_at) / RFU GIMAP4 (11747438_a_at) / Fold change /veh GIMAP4 (11747438_a_at) / RFU KRT8 (11758183_x_at) / Fold change /veh KRT8 (11758183_x_at) / RFU CNN1 (11734310_a_at) / Fold change /veh CNN1 (11734310_a_at) / RFU VPS37D (11726825_at) / Fold change /veh VPS37D (11726825_at) / RFU C10orf10 (11716522_x_at) / Fold change /veh C10orf10 (11716522_x_at) / RFU KIR2DL2 /// KIR2DL4 /// KIR2DL5A /// KIR2DL5B /// KIR2DS1 /// KIR2DS2 /// KIR2DS3 /// KIR2DS4 /// KIR3DL3 /// KIR3DL3 /// KIR3DS1 (11738374_at) / Fold change /veh KIR2DL2 /// KIR2DL4 /// KIR2DL5A /// KIR2DL5B /// KIR2DS1 /// KIR2DS2 /// KIR2DS3 /// KIR2DS4 /// KIR3DL3 /// KIR3DL3 /// KIR3DS1 (11738374_at) / RFU C1QL1 (11718748_at) / Fold change /veh C1QL1 (11718748_at) / RFU TMPRSS4 (11747572_a_at) / Fold change /veh TMPRSS4 (11747572_a_at) / RFU HAMP (11756126_x_at) / Fold change /veh HAMP (11756126_x_at) / RFU RNFT2 (11725882_a_at) / Fold change /veh RNFT2 (11725882_a_at) / RFU NR4A2 (11747474_a_at) / Fold change /veh NR4A2 (11747474_a_at) / RFU ABCC12 (11746883_a_at) / Fold change /veh ABCC12 (11746883_a_at) / RFU TMEM136 (11760407_x_at) / Fold change /veh TMEM136 (11760407_x_at) / RFU CLDN22 /// WWC2 (11732394_at) / Fold change /veh CLDN22 /// WWC2 (11732394_at) / RFU HLA-DPB1 (11760878_x_at) / Fold change /veh HLA-DPB1 (11760878_x_at) / RFU SPINT1 (11716480_a_at) / Fold change /veh SPINT1 (11716480_a_at) / RFU GAP43 (11754022_s_at) / Fold change /veh GAP43 (11754022_s_at) / RFU A4GNT (11735810_at) / Fold change /veh A4GNT (11735810_at) / RFU PRB3 (11715151_x_at) / Fold change /veh PRB3 (11715151_x_at) / RFU TUBB4B (11761932_at) / Fold change /veh TUBB4B (11761932_at) / RFU CAPN14 (11732068_a_at) / Fold change /veh CAPN14 (11732068_a_at) / RFU TMCC2 (11721928_a_at) / Fold change /veh TMCC2 (11721928_a_at) / RFU IRGQ (11745062_a_at) / Fold change /veh IRGQ (11745062_a_at) / RFU FAM174B (11720279_a_at) / Fold change /veh FAM174B (11720279_a_at) / RFU TMPRSS4 (11748680_a_at) / Fold change /veh TMPRSS4 (11748680_a_at) / RFU FAM212B (11763350_a_at) / Fold change /veh FAM212B (11763350_a_at) / RFU PLEKHG5 (11743358_a_at) / Fold change /veh PLEKHG5 (11743358_a_at) / RFU ZSCAN30 (11745921_a_at) / Fold change /veh ZSCAN30 (11745921_a_at) / RFU CMKLR1 (11741424_a_at) / Fold change /veh CMKLR1 (11741424_a_at) / RFU LOC101060620 /// MAPK8IP1 (11723275_at) / Fold change /veh LOC101060620 /// MAPK8IP1 (11723275_at) / RFU SPTSSB (11747773_x_at) / Fold change /veh SPTSSB (11747773_x_at) / RFU PRSS12 (11739890_at) / Fold change /veh PRSS12 (11739890_at) / RFU BIN1 (11741810_x_at) / Fold change /veh BIN1 (11741810_x_at) / RFU WNT11 (11732464_a_at) / Fold change /veh WNT11 (11732464_a_at) / RFU C10orf10 (11716521_a_at) / Fold change /veh C10orf10 (11716521_a_at) / RFU C5orf56 (11738089_at) / Fold change /veh C5orf56 (11738089_at) / RFU CYB561 (11721691_x_at) / Fold change /veh CYB561 (11721691_x_at) / RFU ANKRD19P (11752326_a_at) / Fold change /veh ANKRD19P (11752326_a_at) / RFU OR2T12 /// OR2T33 /// OR2T8 (11738714_s_at) / Fold change /veh OR2T12 /// OR2T33 /// OR2T8 (11738714_s_at) / RFU VCAN (11748164_a_at) / Fold change /veh VCAN (11748164_a_at) / RFU JSRP1 (11732532_at) / Fold change /veh JSRP1 (11732532_at) / RFU KRTAP10-11 (11738290_x_at) / Fold change /veh KRTAP10-11 (11738290_x_at) / RFU MYO3A (11730013_a_at) / Fold change /veh MYO3A (11730013_a_at) / RFU EBF3 (11725865_a_at) / Fold change /veh EBF3 (11725865_a_at) / RFU CAMK2N1 (11719241_x_at) / Fold change /veh CAMK2N1 (11719241_x_at) / RFU C5orf56 (11738088_a_at) / Fold change /veh C5orf56 (11738088_a_at) / RFU OLFML3 (11715873_a_at) / Fold change /veh OLFML3 (11715873_a_at) / RFU LOC100653217 /// NTM (11731650_a_at) / Fold change /veh LOC100653217 /// NTM (11731650_a_at) / RFU MAPK11 (11762145_a_at) / Fold change /veh MAPK11 (11762145_a_at) / RFU FIZ1 (11724087_x_at) / Fold change /veh FIZ1 (11724087_x_at) / RFU OASL (11726364_x_at) / Fold change /veh OASL (11726364_x_at) / RFU SOX15 (11748057_x_at) / Fold change /veh SOX15 (11748057_x_at) / RFU CD79A (11719716_a_at) / Fold change /veh CD79A (11719716_a_at) / RFU HIST1H1D (11736915_at) / Fold change /veh HIST1H1D (11736915_at) / RFU CASKIN2 (11723855_a_at) / Fold change /veh CASKIN2 (11723855_a_at) / RFU LOC730098 (11760151_x_at) / Fold change /veh LOC730098 (11760151_x_at) / RFU OR4N2 (11742367_at) / Fold change /veh OR4N2 (11742367_at) / RFU PRRT2 (11749266_a_at) / Fold change /veh PRRT2 (11749266_a_at) / RFU SNX32 (11753110_a_at) / Fold change /veh SNX32 (11753110_a_at) / RFU CDHR5 (11726645_a_at) / Fold change /veh CDHR5 (11726645_a_at) / RFU RCAN1 (11760418_a_at) / Fold change /veh RCAN1 (11760418_a_at) / RFU FAM167A (11723789_a_at) / Fold change /veh FAM167A (11723789_a_at) / RFU FAM26E (11764081_at) / Fold change /veh FAM26E (11764081_at) / RFU ISYNA1 (11749810_s_at) / Fold change /veh ISYNA1 (11749810_s_at) / RFU ACY1 (11761880_at) / Fold change /veh ACY1 (11761880_at) / RFU 11764098_at / Fold change /veh 11764098_at / RFU SAMD14 (11745864_x_at) / Fold change /veh SAMD14 (11745864_x_at) / RFU NPB (11741838_a_at) / Fold change /veh NPB (11741838_a_at) / RFU TMPRSS6 (11731388_a_at) / Fold change /veh TMPRSS6 (11731388_a_at) / RFU KRTAP10-2 (11738614_at) / Fold change /veh KRTAP10-2 (11738614_at) / RFU ARHGAP8 /// PRR5-ARHGAP8 (11727945_x_at) / Fold change /veh ARHGAP8 /// PRR5-ARHGAP8 (11727945_x_at) / RFU KRTAP5-7 /// NADSYN1 (11734609_at) / Fold change /veh KRTAP5-7 /// NADSYN1 (11734609_at) / RFU RASL12 (11751679_a_at) / Fold change /veh RASL12 (11751679_a_at) / RFU CDKN2B (11736163_a_at) / Fold change /veh CDKN2B (11736163_a_at) / RFU PRF1 (11729649_at) / Fold change /veh PRF1 (11729649_at) / RFU, ZNF638 /// ZNF638-IT1 / Fold change vs veh, ZNF638 /// ZNF638-IT1 / RFU, PANK3 / Fold change vs veh, PANK3 / RFU, SH3YL1 / Fold change vs veh, SH3YL1 / RFU, ZEB2 / Fold change vs veh, ZEB2 / RFU, NRIP1 / Fold change vs veh, NRIP1 / RFU, PTTG1IP / Fold change vs veh, PTTG1IP / RFU, CAPN2 / Fold change vs veh, CAPN2 / RFU, MED14 / Fold change vs veh, MED14 / RFU, SNORA58 / Fold change vs veh, SNORA58 / RFU, C1orf63 / Fold change vs veh, C1orf63 / RFU, LRRFIP1 / Fold change vs veh, LRRFIP1 / RFU, NDUFAF7 / Fold change vs veh, NDUFAF7 / RFU, SLC12A2 / Fold change vs veh, SLC12A2 / RFU, IBTK / Fold change vs veh, IBTK / RFU, ESF1 / Fold change vs veh, ESF1 / Fold change vs veh, TMEM50B / RFU, TAOK1 / Fold change vs veh, TAOK1 / RFU, ACBD3 / Fold change vs veh, ACBD3 / RFU, TMA16 / Fold change vs veh, TMA16 / RFU, RWDD3 / Fold change vs veh, RWDD3 / RFU, BCAT1 / Fold change vs veh, BCAT1 / RFU, EDEM3 / Fold change vs veh, EDEM3 / RFU, TMEM33 / Fold change vs veh, TMEM33 / RFU, WDR75 / Fold change vs veh, WDR75 / RFU, AHCTF1 / Fold change vs veh, AHCTF1 / RFU, TFRC / Fold change vs veh, TFRC / RFU, ZDHHC17 / Fold change vs veh, ZDHHC17 / RFU, NOM1 / Fold change vs veh, NOM1 / RFU, ARL8B / Fold change vs veh, ARL8B / RFU, ZBTB11 / Fold change vs veh, ZBTB11 / RFU, TAMM41 / Fold change vs veh, TAMM41 / RFU, KIAA1704 /// LOC100996395 / Fold change vs veh, KIAA1704 /// LOC100996395 / RFU, ING1 / Fold change vs veh, ING1 / RFU, TRMT61B / Fold change vs veh, TRMT61B / RFU, FUBP3 / Fold change vs veh, FUBP3 / RFU, TP53 / Fold change vs veh, TP53 / RFU, TNKS2 / Fold change vs veh, TNKS2 / RFU, ZFP14 / Fold change vs veh, ZFP14 / RFU, ACTR2 / Fold change vs veh, ACTR2 / RFU, PPP3R1 / Fold change vs veh, PPP3R1 / RFU, PIK3R1 / Fold change vs veh, PIK3R1 / RFU, HNRNPA1 / Fold change vs veh, HNRNPA1 / RFU, RNF170 / Fold change vs veh, RNF170 / RFU, ZNF28 / Fold change vs veh, ZNF28 / RFU, RNGTT / Fold change vs veh, RNGTT / RFU, OGT / Fold change vs veh, OGT / RFU, BRD1 / Fold change vs veh, BRD1 / RFU, MARS / Fold change vs veh, MARS / RFU, ZNF655 / Fold change vs veh, ZNF655 / RFU, FAHD1 / Fold change vs veh, FAHD1 / RFU, BDP1 / Fold change vs veh, BDP1 / RFU, LRRCC1 / Fold change vs veh, LRRCC1 / RFU, ARID1A / Fold change vs veh, ARID1A / RFU, ZNF146 / Fold change vs veh, ZNF146 / RFU, ZNF330 / Fold change vs veh, ZNF330 / RFU, GPN3 / Fold change vs veh, GPN3 / RFU, C9orf123 / Fold change vs veh, C9orf123 / RFU, N4BP2L2 / Fold change vs veh, N4BP2L2 / RFU, ARFIP1 / Fold change vs veh, ARFIP1 / RFU, FAM179B / Fold change vs veh, FAM179B / RFU, BCL10 / Fold change vs veh, BCL10 / RFU, UHRF1BP1L / Fold change vs veh, UHRF1BP1L / RFU, BET1 / Fold change vs veh, BET1 / RFU, CNOT2 / Fold change vs veh, CNOT2 / RFU, ZNF268 / Fold change vs veh, ZNF268 / Fold change vs veh, ZNF507 / RFU, DGCR2 / Fold change vs veh, DGCR2 / RFU, WDSUB1 / Fold change vs veh, WDSUB1 / Fold change vs veh, HSP90B1 /// MIR3652 / RFU, ADSS / Fold change vs veh, ADSS / RFU, GK / Fold change vs veh, GK / RFU, ZNF148 / Fold change vs veh, ZNF148 / RFU, TAF9 / Fold change vs veh, TAF9 / RFU, SLC1A5 / Fold change vs veh, SLC1A5 / RFU, SLMO2 / Fold change vs veh, SLMO2 / RFU, ABCC4 / Fold change vs veh, ABCC4 / RFU, LOC101060439 /// RAP1B / Fold change vs veh, LOC101060439 /// RAP1B / RFU, RFX7 / Fold change vs veh, RFX7 / RFU, GTPBP10 / Fold change vs veh, GTPBP10 / RFU, CNEP1R1 / Fold change vs veh, CNEP1R1 / RFU, BIVM-ERCC5 /// ERCC5 / Fold change vs veh, BIVM-ERCC5 /// ERCC5 / RFU, ILF3 / Fold change vs veh, ILF3 / RFU 11762660_at / Fold change /veh 11762660_at / RFU VCAN (11757783_s_at) / Fold change /veh VCAN (11757783_s_at) / RFU DDX43 (11728927_at) / Fold change /veh DDX43 (11728927_at) / RFU KRT8 (11758188_x_at) / Fold change /veh KRT8 (11758188_x_at) / RFU NKD1 (11759106_at) / Fold change /veh NKD1 (11759106_at) / RFU SRD5A1 (11742802_a_at) / Fold change /veh SRD5A1 (11742802_a_at) / RFU TPSAB1 /// TPSB2 (11721975_s_at) / Fold change /veh TPSAB1 /// TPSB2 (11721975_s_at) / RFU GSTM3 (11746129_a_at) / Fold change /veh GSTM3 (11746129_a_at) / RFU IL23R (11737362_x_at) / Fold change /veh IL23R (11737362_x_at) / RFU TMEM51 (11727254_a_at) / Fold change /veh TMEM51 (11727254_a_at) / RFU PIWIL2 (11732686_x_at) / Fold change /veh PIWIL2 (11732686_x_at) / RFU ORM1 (11744905_x_at) / Fold change /veh ORM1 (11744905_x_at) / RFU CCDC152 (11743942_at) / Fold change /veh CCDC152 (11743942_at) / RFU ECM1 (11717891_a_at) / Fold change /veh ECM1 (11717891_a_at) / RFU IL23R (11748794_a_at) / Fold change /veh IL23R (11748794_a_at) / RFU TNFAIP8L3 (11732012_x_at) / Fold change /veh TNFAIP8L3 (11732012_x_at) / RFU MBOAT4 (11741988_at) / Fold change /veh MBOAT4 (11741988_at) / RFU 11764193_at / Fold change /veh 11764193_at / RFU TMEM53 (11763286_at) / Fold change /veh TMEM53 (11763286_at) / RFU MAGEB2 (11727129_at) / Fold change /veh MAGEB2 (11727129_at) / RFU TMEM200A (11744735_a_at) / Fold change /veh TMEM200A (11744735_a_at) / RFU CCDC152 (11751479_a_at) / Fold change /veh CCDC152 (11751479_a_at) / RFU FAM211A (11726209_a_at) / Fold change /veh FAM211A (11726209_a_at) / RFU RGS16 (11746705_a_at) / Fold change /veh RGS16 (11746705_a_at) / RFU VCAN (11755009_s_at) / Fold change /veh VCAN (11755009_s_at) / RFU RHOB (11743442_s_at) / Fold change /veh RHOB (11743442_s_at) / RFU RGS16 (11720943_a_at) / Fold change /veh RGS16 (11720943_a_at) / RFU RGS16 (11720944_at) / Fold change /veh RGS16 (11720944_at) / RFU, VPS4B / Fold change vs veh, VPS4B / RFU, CREB1 / Fold change vs veh, CREB1 / RFU, DNAJC13 / Fold change vs veh, DNAJC13 / RFU, GNAQ / Fold change vs veh, GNAQ / RFU, CDK5R1 / Fold change vs veh, CDK5R1 / RFU, ZRANB3 / Fold change vs veh, ZRANB3 / RFU, CUL4A / Fold change vs veh, CUL4A / RFU, CCNY / Fold change vs veh, CCNY / RFU, UFL1 / Fold change vs veh, UFL1 / RFU, COG3 / Fold change vs veh, COG3 / RFU, DIAPH2 / Fold change vs veh, DIAPH2 / RFU, SKA2 / Fold change vs veh, SKA2 / RFU, AFF3 / Fold change vs veh, AFF3 / RFU, LMF1 / Fold change vs veh, LMF1 / RFU, IPO11 / Fold change vs veh, IPO11 / RFU, DFFB / Fold change vs veh, DFFB / RFU, FOXP1 / Fold change vs veh, FOXP1 / RFU, CARD8 / Fold change vs veh, CARD8 / RFU, STRN3 / Fold change vs veh, STRN3 / RFU, ADK / Fold change vs veh, ADK / RFU, RASSF2 / Fold change vs veh, RASSF2 / RFU, WIPF1 / Fold change vs veh, WIPF1 / RFU, LARP1B / Fold change vs veh, LARP1B / RFU, RASA1 / Fold change vs veh, RASA1 / RFU, RB1 / Fold change vs veh, RB1 / RFU, PPFIA1 / Fold change vs veh, PPFIA1 / RFU, MAT2A / Fold change vs veh, MAT2A / RFU, CCT5 / Fold change vs veh, CCT5 / RFU, WDR92 / Fold change vs veh, WDR92 / RFU, CUX1 / Fold change vs veh, CUX1 / RFU, TTC7A / Fold change vs veh, TTC7A / RFU, TMEM135 / Fold change vs veh, TMEM135 / RFU, DEPTOR / Fold change vs veh, DEPTOR / RFU, CPM / Fold change vs veh, CPM / RFU, DNAJB6 / Fold change vs veh, DNAJB6 / RFU, CACNA2D3 / Fold change vs veh, CACNA2D3 / RFU, DTX4 / Fold change vs veh, DTX4 / RFU, TFCP2 / Fold change vs veh, TFCP2 / RFU, GMCL1 /// GMCL1P1 / Fold change vs veh, GMCL1 /// GMCL1P1 / RFU, AEBP2 / Fold change vs veh, AEBP2 / RFU, SNHG1 /// SNORD22 /// SNORD25 /// SNORD26 /// SNORD27 /// SNORD28 /// SNORD29 /// SNORD31 / Fold change vs veh, SNHG1 /// SNORD22 /// SNORD25 /// SNORD26 /// SNORD27 /// SNORD28 /// SNORD29 /// SNORD31 / Fold change (Aza/veh), C12orf56 (ProbeSet 11735607_a_at) / Fold change (ACY-1035/veh), C12orf56 (ProbeSet 11735607_a_at) / Fold change (Aza/veh), FGFR1OP (ProbeSet 11751329_s_at) / Fold change (ACY-1035/veh), FGFR1OP (ProbeSet 11751329_s_at) / Fold change (Aza/veh), VPS36 (ProbeSet 11739960_a_at) / Fold change (ACY-1035/veh), VPS36 (ProbeSet 11739960_a_at) / RFU SYPL1 (11715823_x_at) / Fold change /veh SYPL1 (11715823_x_at) / RFU IGFBP7 (11715501_s_at) / Fold change /veh IGFBP7 (11715501_s_at) / RFU REEP3 (11722064_at) / Fold change /veh REEP3 (11722064_at) / RFU IGLL1 (11728026_x_at) / Fold change /veh IGLL1 (11728026_x_at): dose or concentration left out as unconfirmed", "conditions": "ProbeSet 11723141_at; LIST B"}
{"smiles": "Nc1ccc(-c2cccs2)cc1NC(=O)c1ccc2c(c1)cc(C1CC1)n2CCN1CCOCC1", "note": "[ACY-1035]", "values": [{"measurement": "RFU, ZBTB11", "result": 113.11, "unit": "RFU"}]}
